Measurements as given in PubChem BioAssay AID1259407 (Chemical Carcinogenesis Research Information System (CCRIS), 2018).
Active and inactive are the calls of the source. How the calls were made is not given here.

System: CCRIS mutagenicity, Ames/micronucleus/aberration tests
Assay: CCRIS mutagenicity studies
[1] = Test System: AMES SALMONELLA TYPHIMURIUM, Strain/Indicator: TA98, Metabolic Activation: NONE, Method: STANDARD PLATE
[2] = Test System: AMES SALMONELLA TYPHIMURIUM, Strain/Indicator: TA98, Metabolic Activation: RAT LIVER S-9, AROCLOR 1254, Method: STANDARD PLATE
[3] = Test System: AMES SALMONELLA TYPHIMURIUM, Strain/Indicator: TA100, Metabolic Activation: NONE, Method: STANDARD PLATE
[4] = Test System: AMES SALMONELLA TYPHIMURIUM, Strain/Indicator: TA100, Metabolic Activation: RAT LIVER S-9, AROCLOR 1254, Method: STANDARD PLATE
[5] = Test System: AMES SALMONELLA TYPHIMURIUM, Strain/Indicator: TA1535, Metabolic Activation: NONE, Method: STANDARD PLATE
[6] = Test System: AMES SALMONELLA TYPHIMURIUM, Strain/Indicator: TA1535, Metabolic Activation: RAT LIVER S-9, AROCLOR 1254, Method: STANDARD PLATE
[7] = Test System: AMES SALMONELLA TYPHIMURIUM, Strain/Indicator: TA1537, Metabolic Activation: NONE, Method: STANDARD PLATE
[8] = Test System: AMES SALMONELLA TYPHIMURIUM, Strain/Indicator: TA1537, Metabolic Activation: RAT LIVER S-9, AROCLOR 1254, Method: STANDARD PLATE

Question: How did the mutagenic call (Test System: AMES SALMONELLA TYPHIMURIUM, Strain/Indicator: TA98, Metabolic Activation: HAMSTER LIVER S-9, AROCLOR 1254, Method: STANDARD PLATE) turn out when `CC1CCCO1` (configuration not stated) was run?
Answer: Its mutagenic call is “inactive; negative”.

Question: What about the mutagenic call [1] of the same compound?
Answer: Its mutagenic call is “inactive; negative”.

Question: And the mutagenic call [2]?
Answer: The mutagenic call was “inactive; negative”.

Question: And the mutagenic call (Test System: AMES SALMONELLA TYPHIMURIUM, Strain/Indicator: TA100, Metabolic Activation: HAMSTER LIVER S-9, AROCLOR 1254, Method: STANDARD PLATE)?
Answer: Its mutagenic call is “inactive; negative”.

Question: What about the mutagenic call [3] of the same compound?
Answer: Its mutagenic call is “inactive; negative”.

Question: And the mutagenic call [4]?
Answer: Its mutagenic call is “inactive; negative”.

Question: What about the mutagenic call (Test System: AMES SALMONELLA TYPHIMURIUM, Strain/Indicator: TA102, Metabolic Activation: HAMSTER LIVER S-9, AROCLOR 1254, Method: STANDARD PLATE) of the same compound?
Answer: Its mutagenic call is “inactive; negative”.

Question: What about the mutagenic call (Test System: AMES SALMONELLA TYPHIMURIUM, Strain/Indicator: TA102, Metabolic Activation: NONE, Method: STANDARD PLATE) of the same compound?
Answer: Its mutagenic call is “inactive; negative”.

Question: And the mutagenic call (Test System: AMES SALMONELLA TYPHIMURIUM, Strain/Indicator: TA102, Metabolic Activation: RAT LIVER S-9, AROCLOR 1254, Method: STANDARD PLATE)?
Answer: Its mutagenic call is “inactive; negative”.

Question: And the mutagenic call (Test System: AMES SALMONELLA TYPHIMURIUM, Strain/Indicator: TA1535, Metabolic Activation: HAMSTER LIVER S-9, AROCLOR 1254, Method: STANDARD PLATE)?
Answer: Its mutagenic call is “inactive; negative”.

Question: What about the mutagenic call [5] of the same compound?
Answer: Its mutagenic call is “inactive; negative”.

Question: What about the mutagenic call [6] of the same compound?
Answer: The mutagenic call was “inactive; negative”.

Question: And the mutagenic call (Test System: AMES SALMONELLA TYPHIMURIUM, Strain/Indicator: TA1537, Metabolic Activation: HAMSTER LIVER S-9, AROCLOR 1254, Method: STANDARD PLATE)?
Answer: The mutagenic call was “inactive; negative”.

Question: What about the mutagenic call [7] of the same compound?
Answer: Its mutagenic call is “inactive; negative”.

Question: And the mutagenic call [8]?
Answer: The mutagenic call was “inactive; negative”.

Question: What about the mutagenic call (Test System: Mouse lymphoma, Strain/Indicator: L5178Y (tk+/tk-), Metabolic Activation: None, Method: Suspension/plate) of the same compound?
Answer: Its mutagenic call is “inactive; negative”.

Question: And the mutagenic call (Test System: Mouse lymphoma, Strain/Indicator: L5178Y (tk+/tk-), Metabolic Activation: Rat, Liver, S-9, Aroclor 1254, Method: Suspension/plate)?
Answer: The mutagenic call was “inactive; inconclusive (previous evaluation negative)”.

Question: Which results are given for `Nc1ccc2nc3ccccc3nc2c1`?
Answer: mutagenic call (Test System: AMES SALMONELLA TYPHIMURIUM, Strain/Indicator: TA98, Metabolic Activation: NONE, Method: PREINCUBATION): inactive; negative; mutagenic call (Test System: AMES SALMONELLA TYPHIMURIUM, Strain/Indicator: TA98, Metabolic Activation: RAT, LIVER, S-9, PCB, Method: PREINCUBATION): active; positive

Question: Which results are given for `C[C@]12O[C@H]1[C@H]1CCCC[C@@H]1c1ccccc12`?
Answer: mutagenic call [1]: inactive; negative; mutagenic call [3]: inactive; negative

Question: For `COc1ccc(/C=C/c2ccc(N)cc2)cc1`, which mutagenic call (Test System: AMES SALMONELLA TYPHIMURIUM, Strain/Indicator: TA98(1,8-DNP6), Metabolic Activation: NONE, Method: STANDARD PLATE) is on record?
Answer: Its mutagenic call is “inactive; negative”.

Question: And the mutagenic call (Test System: AMES SALMONELLA TYPHIMURIUM, Strain/Indicator: TA98(1,8-DNP6), Metabolic Activation: S-9, Method: STANDARD PLATE)?
Answer: Its mutagenic call is “inactive; negative”.

Question: And the mutagenic call [1]?
Answer: Its mutagenic call is “inactive; negative”.

Question: And the mutagenic call (Test System: AMES SALMONELLA TYPHIMURIUM, Strain/Indicator: TA98, Metabolic Activation: S-9, Method: STANDARD PLATE)?
Answer: Its mutagenic call is “active; positive”.

Question: What about the mutagenic call [3] of the same compound?
Answer: The mutagenic call was “inactive; negative”.

Question: And the mutagenic call (Test System: AMES SALMONELLA TYPHIMURIUM, Strain/Indicator: TA100, Metabolic Activation: S-9, Method: STANDARD PLATE)?
Answer: Its mutagenic call is “active; positive”.

Question: How did the mutagenic call (Test System: AMES SALMONELLA TYPHIMURIUM, Strain/Indicator: TA2410, Metabolic Activation: NONE, Method: STANDARD PLATE) turn out when `C1=C\CC/C=C\CC/1.Nc1ccccc1.[Cl-].[Rh]` was run?
Answer: Its mutagenic call is “inactive; negative”.

Question: How did the mutagenic call (Test System: Ames Salmonella typhimurium, Strain/Indicator: TA102, Metabolic Activation: None, Method: Preincubation) turn out when `CN(C)c1ccc(N=Nc2ccc(S(=O)(=O)O)cc2)cc1` was run?
Answer: The mutagenic call was “inactive; negative”.

Question: What about the mutagenic call (Test System: Ames Salmonella typhimurium, Strain/Indicator: TA102, Metabolic Activation: Rat, Liver, S-9, Aroclor 1254, Method: Preincubation) of the same compound?
Answer: The mutagenic call was “active; positive. statistically significant at highest dose”.

Question: What about the mutagenic call (Test System: Ames Salmonella typhimurium, Strain/Indicator: TA104, Metabolic Activation: None, Method: Preincubation) of the same compound?
Answer: Its mutagenic call is “inactive; negative”.

Question: What about the mutagenic call (Test System: Ames Salmonella typhimurium, Strain/Indicator: TA104, Metabolic Activation: Rat, Liver, S-9, Aroclor 1254, Method: Preincubation) of the same compound?
Answer: Its mutagenic call is “active; positive. statistically significant at highest dose”.

Question: Which results are given for `O=[O+][O-]`?
Answer: mutagenic call (Test System: AMES SALMONELLA TYPHIMURIUM, Strain/Indicator: TA98, Metabolic Activation: NONE, Method: VAPOR CHAMBER): inactive; negative; mutagenic call (Test System: AMES SALMONELLA TYPHIMURIUM, Strain/Indicator: TA98, Metabolic Activation: RAT, LIVER, S-9, AROCLOR 1254, Method: VAPOR CHAMBER): inactive; negative; mutagenic call (Test System: AMES SALMONELLA TYPHIMURIUM, Strain/Indicator: TA100, Metabolic Activation: NONE, Method: VAPOR CHAMBER): inactive; negative; mutagenic call (Test System: AMES SALMONELLA TYPHIMURIUM, Strain/Indicator: TA100, Metabolic Activation: RAT, LIVER, S-9, AROCLOR 1254, Method: VAPOR CHAMBER): inactive; negative; mutagenic call (Test System: AMES SALMONELLA TYPHIMURIUM, Strain/Indicator: TA102, Metabolic Activation: NONE): active; positive; mutagenic call (Test System: AMES SALMONELLA TYPHIMURIUM, Strain/Indicator: TA102, Metabolic Activation: NONE, Method: VAPOR CHAMBER): active; positive; mutagenic call (Test System: AMES SALMONELLA TYPHIMURIUM, Strain/Indicator: TA102, Metabolic Activation: RAT, LIVER, S-9, AROCLOR 1254 (10%)): active; positive; mutagenic call (Test System: AMES SALMONELLA TYPHIMURIUM, Strain/Indicator: TA102, Metabolic Activation: RAT, LIVER, S-9, AROCLOR 1254, Method: VAPOR CHAMBER): active; positive; mutagenic call (Test System: AMES SALMONELLA TYPHIMURIUM, Strain/Indicator: TA104, Metabolic Activation: NONE, Method: VAPOR CHAMBER): inactive; negative; mutagenic call (Test System: AMES SALMONELLA TYPHIMURIUM, Strain/Indicator: TA104, Metabolic Activation: RAT, LIVER, S-9, AROCLOR 1254, Method: VAPOR CHAMBER): inactive; negative; mutagenic call (Test System: AMES SALMONELLA TYPHIMURIUM, Strain/Indicator: TA1535, Metabolic Activation: NONE, Method: VAPOR CHAMBER): inactive; negative; mutagenic call (Test System: AMES SALMONELLA TYPHIMURIUM, Strain/Indicator: TA1535, Metabolic Activation: RAT, LIVER, S-9, AROCLOR 1254, Method: VAPOR CHAMBER): inactive; negative

Question: Which mutagenic call [1] does the source give for `C[Si]1(C)O[Si](C)(C)O[Si](C)(C)O1` here?
Answer: Its mutagenic call is “inactive; negative”.

Question: And the mutagenic call [2]?
Answer: Its mutagenic call is “inactive; negative”.

Question: What about the mutagenic call [3] of the same compound?
Answer: Its mutagenic call is “inactive; negative”.

Question: What about the mutagenic call [4] of the same compound?
Answer: Its mutagenic call is “inactive; negative”.

Question: What about the mutagenic call [5] of the same compound?
Answer: The mutagenic call was “inactive; negative”.

Question: And the mutagenic call [6]?
Answer: The mutagenic call was “inactive; negative”.

Question: And the mutagenic call [7]?
Answer: The mutagenic call was “inactive; negative”.

Question: What about the mutagenic call [8] of the same compound?
Answer: The mutagenic call was “inactive; negative”.

Question: And the mutagenic call (Test System: AMES SALMONELLA TYPHIMURIUM, Strain/Indicator: TA1538, Metabolic Activation: NONE, Method: STANDARD PLATE)?
Answer: Its mutagenic call is “inactive; negative”.

Question: What about the mutagenic call (Test System: AMES SALMONELLA TYPHIMURIUM, Strain/Indicator: TA1538, Metabolic Activation: RAT LIVER S-9, AROCLOR 1254, Method: STANDARD PLATE) of the same compound?
Answer: The mutagenic call was “inactive; negative”.

Question: And the mutagenic call (Test System: E. COLI, Strain/Indicator: P3078 POLA, Metabolic Activation: NONE, Method: SPOT TEST)?
Answer: Its mutagenic call is “inactive; negative”.

Question: What about the mutagenic call (Test System: E. COLI, Strain/Indicator: P3078 POLA, Metabolic Activation: RAT LIVER S-9, AROCLOR 1254, Method: SPOT TEST) of the same compound?
Answer: Its mutagenic call is “inactive; negative”.

Question: And the mutagenic call (Test System: E. COLI, Strain/Indicator: W3110, Metabolic Activation: NONE, Method: SPOT TEST)?
Answer: The mutagenic call was “inactive; negative”.

Question: What about the mutagenic call (Test System: E. COLI, Strain/Indicator: W3110, Metabolic Activation: RAT LIVER S-9, AROCLOR 1254, Method: SPOT TEST) of the same compound?
Answer: The mutagenic call was “inactive; negative”.

Question: And the mutagenic call (Test System: MOUSE LYMPHOMA, Strain/Indicator: L5178Y (TK+/TK-), Metabolic Activation: NONE, Method: SUSPENSION/PLATE)?
Answer: The mutagenic call was “inactive; negative”.

Question: What about the mutagenic call (Test System: MOUSE LYMPHOMA, Strain/Indicator: L5178Y (TK+/TK-), Metabolic Activation: RAT, LIVER, S-9, Method: SUSPENSION/PLATE) of the same compound?
Answer: Its mutagenic call is “inactive; negative”.

Question: Which results are given for `CCCCCCCCCCCCN`?
Answer: mutagenic call (End Point: In vitro Chromosomal aberrations, Test System: CHO Cells, Metabolic Activation: None): inactive; negative; cytotoxic at 12 and 18 ug/ml; mutagenic call (End Point: In vitro Chromosomal aberrations, Test System: CHO Cells, Metabolic Activation: Rodent S-9): inactive; negative; cytotoxic at 12 and 18 ug/ml
